Data taken from PMC9219098 (ACS Omega, 2022).
Like-named read-outs stand apart in the source and are kept apart here.

Target: AChE (Homo sapiens, UniProt P22303)
Test: In vitro AChE enzyme assay
Format: biochemical

Chain of AChE (P22303 32-614): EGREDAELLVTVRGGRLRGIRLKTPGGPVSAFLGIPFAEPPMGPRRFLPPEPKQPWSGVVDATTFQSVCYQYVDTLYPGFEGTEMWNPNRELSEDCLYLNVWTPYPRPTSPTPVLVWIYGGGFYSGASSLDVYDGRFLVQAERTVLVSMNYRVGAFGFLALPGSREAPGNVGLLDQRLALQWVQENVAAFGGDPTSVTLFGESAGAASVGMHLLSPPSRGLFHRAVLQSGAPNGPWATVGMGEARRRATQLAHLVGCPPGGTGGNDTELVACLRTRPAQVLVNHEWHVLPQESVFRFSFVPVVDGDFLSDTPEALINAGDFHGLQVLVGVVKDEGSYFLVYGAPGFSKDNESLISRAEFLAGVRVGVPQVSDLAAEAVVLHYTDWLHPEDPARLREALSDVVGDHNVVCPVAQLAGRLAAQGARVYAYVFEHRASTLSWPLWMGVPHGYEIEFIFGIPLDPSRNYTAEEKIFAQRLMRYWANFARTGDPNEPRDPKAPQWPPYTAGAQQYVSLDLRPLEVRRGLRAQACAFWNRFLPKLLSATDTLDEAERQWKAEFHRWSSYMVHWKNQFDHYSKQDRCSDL

Row | Structure (SMILES) | IC50 (Ellman method, ACTI substrate, mean ± SD, triplicate) [µM] | IC50 [µM]
1 | COC(F)(F)C(F)(F)C(F)(F)C(F)(F)F [CHEMBL500823, methyl nonafluorobutyl ether] | 52.6 ± 4.14 | 
2 | FC(F)(F)C(F)(F)C(F)(F)C(F)(F)C(F)(F)C(F)(F)F [CHEMBL1200607, perflexane] |  | 50.7 ± 3.73
3 | Cc1cccc(C(=O)C(F)(F)F)c1 [CHEMBL86868, 3′-methyl-2,2,2-trifluoroacetophenone, reference compound] |  | 0.35 ± 0.03
4 | CC(=O)C=Cc1ccc(C(F)(F)F)cc1 [CHEMBL74630, 1-[4-(trifluoromethyl)phenyl]but-1-en-3-one] |  | 26.3 ± 2.18
5 | O=C(c1ccccc1)C(F)(F)F [CHEMBL293277, trifluoroacetophenone] |  | 4.61 ± 0.34
